The compounds below were run against T1, BCL6 (Homo sapiens, UniProt P41182) (assay: BCL6_HiBiT degradation assay (2 h)). Conditions: DHL-4_BCL6_HiBiT cells, read-out: YCon (% remaining maximal effect).
T1 construct: HiBiT-tag knocked into endogenous BCL6 locus using CRISPR; endogenous in cells; host or cells: DHL-4_BCL6_HiBiT cells (CRISPR knock-in)
Assay type: cell-based
Summary of the method: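 DHL-4 cells carrying CRISPR HiBiT knock-in at endogenous BCL6, treated 2 h at 37 °C with 10-point 3-fold dilutions from 1-10 μM. BCL6 level read by Nano-Glo HiBiT lytic luminescence normalized to DMSO; four-parameter fit gives degradation EC50 and Yconstant (% remaining at maximal effect).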

Row | Percent BCL6 remaining at maximal degradation (Ycon) | Compound
1 | < 20% | Cc1nc(N2CC[C@@H](Nc3ccc4c(C5CCC(=O)NC5=O)nn(C)c4c3)[C@H](C)C2)nc(Nc2ccc3c(c2)CC(=O)N3C)c1Cl (stereo partly drawn) [Example 122, 3-(6-(((3R,4R)-1-(5-chloro-4-methyl-6-((1-methyl-2-oxoindolin-5-yl)amino)pyrimidin-2-yl)-3-methylpiperidin-4-yl)amino)-1-methyl-1H-indazol-3-yl)piperidine-2,6-dione]
2 | < 20% | C[C@@H]1CN(c2nc(F)c(Cl)c(Nc3ccc4c(c3)CC(=O)N4C)n2)CC[C@H]1Nc1ccc2c(C3CCC(=O)NC3=O)nn(C)c2c1 (stereo partly drawn) [Example 123, 3-(6-(((3R,4R)-1-(5-chloro-4-fluoro-6-((1-methyl-2-oxoindolin-5-yl)amino)pyrimidin-2-yl)-3-methylpiperidin-4-yl)amino)-1-methyl-1H-indazol-3-yl)piperidine-2,6-dione]
3 | > 60% | Cn1nc(C2CCC(=O)NC2=O)c2ccc(C3CCN(c4ncc(Cl)c(Nc5ccc6c(c5)CC(=O)N6)n4)CC3)cc21 (stereo not shown) [Example 124, 3-[6-[1-[5-chloro-4-[(2-oxoindolin-5-yl)amino]pyrimidin-2-yl]-4-piperidyl]-1-methyl-indazol-3-yl]piperidine-2,6-dione]
4 | > 60% | CN1C(=O)Cc2cc(Nc3nc(N4CCC(c5ccc6c(C7CCC(=O)NC7=O)nn(C)c6c5)CC4)ncc3Cl)ccc21 (stereo not shown) [Example 125, 3-(6-(1-(5-Chloro-4-((1-methyl-2-oxoindolin-5-yl)amino)pyrimidin-2-yl)piperidin-4-yl)-1-methyl-1H-indazol-3-yl)piperidine-2,6-dione]
5 | 20 to 60% | CN1C(=O)Cc2cc(Nc3nc(NC4CCN(c5ccc6c(C7CCC(=O)NC7=O)nn(C)c6c5)C(=O)C4)ncc3Cl)ccc21 (stereo not shown) [Example 126, 3-(6-(4-((5-chloro-4-((1-methyl-2-oxoindolin-5-yl)amino)pyrimidin-2-yl)amino)-2-oxopiperidin-1-yl)-1-methyl-1H-indazol-3-yl)piperidine-2,6-dione]
6 | < 20% | CN1C(=O)Cc2cc(Nc3nc(N(C)C4CCN(c5ccc6c(C7CCC(=O)NC7=O)nn(C)c6c5)C(=O)C4)ncc3Cl)ccc21 (stereo not shown) [Example 127, 3-(6-(4-((5-chloro-4-((1-methyl-2-oxoindolin-5-yl)amino)pyrimidin-2-yl)(methyl)amino)-2-oxopiperidin-1-yl)-1-methyl-1H-indazol-3-yl)piperidine-2,6-dione]
7 | < 20% | C[C@@H]1CN(c2ncc(C#N)c(Nc3ccc4c(c3)CC(=O)N4C)n2)CC[C@H]1Nc1ccc2c(N3CCC(=O)NC3=O)nn(C)c2c1 [Example 132, 2-((3R,4R)-4-((3-(2,4-dioxotetrahydropyrimidin-1(2H)-yl)-1-methyl-1H-indazol-6-yl)amino)-3-methylpiperidin-1-yl)-4-((1-methyl-2-oxoindolin-5-yl)amino)pyrimidine-5-carbonitrile]
8 | > 60% | CN1C(=O)Cc2cc(Nc3nc(NC4CCN(c5ccc6c(N7CCC(=O)NC7=O)nn(C)c6c5)CC4)ncc3Cl)ccc21 [Example 133, 1-(6-(4-((5-chloro-4-((1-methyl-2-oxoindolin-5-yl)amino)pyrimidin-2-yl)amino)piperidin-1-yl)-1-methyl-1H-indazol-3-yl)dihydropyrimidine-2,4(1H,3H)-dione]
9 | > 60% | CN1C(=O)Cc2cc(Nc3nc(N4CCC(c5ccc6c(N7CCC(=O)NC7=O)nn(C)c6c5)CC4)ncc3Cl)ccc21 [Example 134, 1-(6-(1-(5-chloro-4-((1-methyl-2-oxoindolin-5-yl)amino)pyrimidin-2-yl)piperidin-4-yl)-1-methyl-1H-indazol-3-yl)dihydropyrimidine-2,4(1H,3H)-dione]
10 | > 60% | CN1C(=O)Cc2cc(Nc3nc(N4CCC(Nc5ccc6c(N7CCC(=O)NC7=O)nn(C)c6c5)CC4)ncc3Cl)ccc21 [Example 135, 1-(6-((1-(5-chloro-4-((1-methyl-2-oxoindolin-5-yl)amino)pyrimidin-2-yl)piperidin-4-yl)amino)-1-methyl-1H-indazol-3-yl)dihydropyrimidine-2,4(1H,3H)-dione]
11 | > 60% | Cn1nc(N2CCC(=O)NC2=O)c2ccc(NC3CCN(c4ncc(Cl)c(Nc5ccc6c(c5)CC(=O)N6CC(F)(F)F)n4)CC3)cc21 [Example 136, 1-(6-((1-(5-chloro-4-((2-oxo-1-(2,2,2-trifluoroethyl)indolin-5-yl)amino)pyrimidin-2-yl)piperidin-4-yl)amino)-1-methyl-1H-indazol-3-yl)dihydropyrimidine-2,4(1H,3H)-dione]
12 | 20 to 60% | Cn1nc(N2CCC(=O)NC2=O)c2ccc(NC3CCN(c4ncc(Cl)c(Nc5ccc6c(c5)CC(=O)N6CCO)n4)CC3)cc21 [Example 137, 1-(6-((1-(5-chloro-4-((1-(2-hydroxyethyl)-2-oxoindolin-5-yl)amino)pyrimidin-2-yl)piperidin-4-yl)amino)-1-methyl-1H-indazol-3-yl)dihydropyrimidine-2,4(1H,3H)-dione]
13 | > 60% | CN1C(=O)Cc2cc(Nc3nc(N4CCC(Nc5ccc6c(N7CCC(=O)NC7=O)nn(C)c6c5)CC4)ncc3C#N)ccc21 [Example 138, 2-(4-((3-(2,4-dioxotetrahydropyrimidin-1(2H)-yl)-1-methyl-1H-indazol-6-yl)amino)piperidin-1-yl)-4-((1-methyl-2-oxoindolin-5-yl)amino)pyrimidine-5-carbonitrile]
14 | < 20% | C[C@@H]1CN(c2ncc(Cl)c(Nc3ccc4c(c3)CC(=O)N4C)n2)CC[C@H]1Nc1ccc2c(-n3ccc(=O)[nH]c3=O)nn(C)c2c1 [Example 139, 1-(6-(((3R,4R)-1-(5-chloro-4-((1-methyl-2-oxoindolin-5-yl)amino)pyrimidin-2-yl)-3-methylpiperidin-4-yl)amino)-1-methyl-1H-indazol-3-yl)pyrimidine-2,4(1H,3H)-dione]
15 | < 20% | C[C@@H]1CN(c2ncc(Cl)c(Nc3ccc4c(c3)CC(=O)N4C)n2)CC[C@H]1Nc1ccc2c(-n3cc(F)c(=O)[nH]c3=O)nn(C)c2c1 [Example 140, 1-(6-(((3R,4R)-1-(5-chloro-4-((1-methyl-2-oxoindolin-5-yl)amino)pyrimidin-2-yl)-3-methylpiperidin-4-yl)amino)-1-methyl-1H-indazol-3-yl)-5-fluoropyrimidine-2,4(1H,3H)-dione]
16 | < 20% | C[C@@H]1CN(c2ncc(Cl)c(Nc3ccc4c(c3)CC(=O)N4C)n2)CC[C@H]1Nc1ccc2c(N3CCC(=O)NC3=O)nn(C)c2c1 [Example 141, 1-(6-(((3R,4R)-1-(5-chloro-4-((1-methyl-2-oxoindolin-5-yl)amino)pyrimidin-2-yl)-3-methylpiperidin-4-yl)amino)-1-methyl-1H-indazol-3-yl)dihydropyrimidine-2,4(1H,3H)-dione]
17 | < 20% | C[C@@H]1CN(c2ncc(Cl)c(Nc3ccc4c(c3F)CC(=O)N4C)n2)CC[C@H]1Nc1ccc2c(N3CCC(=O)NC3=O)nn(C)c2c1 [Example 142, 1-(6-(((3R,4R)-1-(5-chloro-4-((4-fluoro-1-methyl-2-oxoindolin-5-yl)amino)pyrimidin-2-yl)-3-methylpiperidin-4-yl)amino)-1-methyl-1H-indazol-3-yl)dihydropyrimidine-2,4(1H,3H)-dione]
18 | < 20% | C[C@@H]1CN(c2ncc(Cl)c(Nc3cnc4c(c3)CC(=O)N4C)n2)CC[C@H]1Nc1ccc2c(N3CCC(=O)NC3=O)nn(C)c2c1 [Example 143, 1-(6-(((3R,4R)-1-(5-chloro-4-((1-methyl-2-oxo-2,3-dihydro-1H-pyrrolo[2,3-b]pyridin-5-yl)amino)pyrimidin-2-yl)-3-methylpiperidin-4-yl)amino)-1-methyl-1H-indazol-3-yl)dihydropyrimidine-2,4(1H,3H)-dione]
19 | > 60% | CCN1C(=O)Cc2cc(Nc3nc(N4CCC(Nc5ccc6c(N7CCC(=O)NC7=O)nn(C)c6c5)CC4)ncc3Cl)ccc21 [Example 144, 1-(6-((1-(5-chloro-4-((1-ethyl-2-oxoindolin-5-yl)amino)pyrimidin-2-yl)piperidin-4-yl)amino)-1-methyl-1H-indazol-3-yl)dihydropyrimidine-2,4(1H,3H)-dione]
20 | 20 to 60% | CO[C@@H]1CN(c2ncc(Cl)c(Nc3ccc4c(c3)CC(=O)N4C)n2)CC[C@H]1Nc1ccc2c(C3CCC(=O)NC3=O)nn(C)c2c1 (stereo partly drawn) [Example 146, 3-(6-(((3R,4R)-1-(5-chloro-4-((1-methyl-2-oxoindolin-5-yl)amino)pyrimidin-2-yl)-3-methoxypiperidin-4-yl)amino)-1-methyl-1H-indazol-3-yl)piperidine-2,6-dione]
21 | 20 to 60% | C[C@H]1CN(c2ccc3c(C4CCC(=O)NC4=O)nn(C)c3c2)C(=O)C[C@H]1N(C)c1ncc(Cl)c(Nc2ccc3c(c2)CC(=O)N3C)n1 (stereo partly drawn) [Example 149, 3-(6-((4R,5S)-4-((5-chloro-4-((1-methyl-2-oxoindolin-5-yl)amino)pyrimidin-2-yl)(methyl)amino)-5-methyl-2-oxopiperidin-1-yl)-1-methyl-1H-indazol-3-yl)piperidine-2,6-dione]
22 | 20 to 60% | CO[C@@H]1CN(c2ncc(Cl)c(Nc3ccc4c(c3)CC(=O)N4C)n2)CC[C@H]1Nc1ccc2c(C3(C)CCC(=O)NC3=O)nn(C)c2c1 (stereo partly drawn) [Example 154, 3-(6-(((3R,4R)-1-(5-chloro-4-((1-methyl-2-oxoindolin-5-yl)amino)pyrimidin-2-yl)-3-methoxypiperidin-4-yl)amino)-1-methyl-1H-indazol-3-yl)-3-methylpiperidine-2,6-dione]

Reference: patent publication US12404239B2, “Modulators of BCL6 as ligand directed degraders” (Celgene Corporation, priority 2022, dated 2025)
